Experimental data taken from paper PMC3582500 (PLoS ONE, 2013).

Experiments:
[1] = molecular target: T1, Laconic (LldR from Escherichia coli between mTFP and Venus) (Escherichia coli, UniProt P0ACL7); test: FRET ratio mTFP/Venus, purified sensor; type: binding; settings: 1 mM citrate without lactate; intracellular buffer pH 7.0
T1 construct: variant 04
T1 sequence (P0ACL7 1-258): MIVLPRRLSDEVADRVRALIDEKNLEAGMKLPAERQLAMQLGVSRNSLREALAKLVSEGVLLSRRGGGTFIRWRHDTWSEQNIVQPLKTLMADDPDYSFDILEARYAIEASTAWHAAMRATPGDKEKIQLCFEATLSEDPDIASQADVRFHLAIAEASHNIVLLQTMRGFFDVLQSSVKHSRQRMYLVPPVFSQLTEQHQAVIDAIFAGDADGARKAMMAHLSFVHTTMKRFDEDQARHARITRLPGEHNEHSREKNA

[2] = molecular target: T1, Laconic (LldR from Escherichia coli between mTFP and Venus); test: FRET ratio mTFP/Venus, purified sensor; type: binding; settings: 0.25, 1 or 10 mM pyruvate with lactate dose-response; effect by interference with lactate; intracellular buffer pH 7.0

Row | SMILES | % increase of FRET ratio at 1 mM [1] [%] | FRET ratio mTFP/Venus, purified sensor [2]
1 | O=C(O)CC(O)(CC(=O)O)C(=O)O [citrate] | 6 | –
2 | CC(=O)C(=O)O [pyruvate] | – | at high concentrations, pyruvate blocked the effect of low lactate
